Consider 6 molecules from patent publication US20070093448A1, “Complexes that consist of vitamin D compounds or analogs thereof with a 5Z,7E,10(19)-triene system and methylated derivatives of beta-cyclodextrin” (priority 2005, published 2007).

Marks after values point to notes of the source that are not given here. Bounds are passed on as bounds.

A short description of series [1]: Cyclodextrin solubility in water. The class given is physicochemical.
The conditions of series [2]: cited from earlier work.
The conditions of series [3]: cited from earlier work. The source holds these as a separate data set.
Series [4] can be described thus: Isomerization to the previtamin in the complexing with cyclodextrins (HPLC). It is filed as physicochemical. How it is done: It is stirred for 2 hours at 22° C. and for 2 hours at 0° C. The solid is suctioned off and washed with 5 ml of cold water. After drying, 1.73 g (90% of theory) is obtained as a white solid. After HPLC (Stat. phase Chiracel JHRH 150×4.6 mm ID, detection 244 nm, eluant water/acetonitrile, flow: 1 ml/minute, gradient t0=70+30 v/v, linear increase of the gradient over 10 minutes t10 min to 60+40 v/v, isocratic t10 min-30 min 60+40 v/v), the solid, in addition to ergocalciferol (tRet.=26 minutes), contains 24% of the previtamin form (tRet.=23 minutes).
10 mg (0.024 mmol, MW 416.65) of calcitriol (dissolved in 100 μl of ethanol) is added in drops to the clear solution over 10 minutes. It is stirred for 2 hours at 22° C. and for 2 hours at 0-3° C., the solid is filtered off, and it is washed 2 times with 100 μl each of cold water. After drying at 20° C. and 0.5 mbar (24 hours), 26.6 mg of calcitriol-β-CD complex (71.5% of theory) is obtained. After the solid is dissolved in methanol and after an HPLC study (Stat. Phase Chiracel JHRH 150×4.6 mm ID, detection 244 nm, eluant water/acetonitrile, flow: 1 ml/minute, gradient t0=70+30 v/v, linear increase of the gradient over 10 minutes t10 min to 60+40 v/v, isocratic t10 min-30 min 60+40 v/v), the solid contains 23% of the previtamin form (tRet.=12 minutes) in addition to calcitriol (tRet.=17 minutes).
At 25° C., 100 mg (0.21 mmol) of (thiazol-2-yl)-26,27-dinor-9,10-secocholesta-5,7,10(19)-triene-1,3,25-triol (dissolved in 0.5 ml of ethanol) is added. It is stirred for 2 hours at room temperature, then for 2 hours at 0° C. The solid is filtered off, washed with 1 ml of cold water and dried. 290 mg (85% of theory) of solid is obtained. The content of the solid in the previtamin (compound 2) is 20% (HPLC, Stat. Phase Chiracel JHRH 150×4.6 mm ID, detection 244 nm, eluant water/acetonitrile, flow: 1 ml/minute, gradient to =70+30 v/v, linear increase of the gradient over 10 minutes t10 min to 60+40 v/v, isocratic t10 min-30 min 60+40 v/v, tRef. Compound 2: 11.65 minutes, tRef. Compound 1: 18.19 minutes). The sample preparation is carried out by dissolving the complex in 100% methanol.
For analytical study, the complexes can be dissolved in methanol or DMF and can be used in these solutions for the HPLC analysis (see 2.1). The content of the complexes that are obtained can be determined in comparison to the pure substance.

Series [5] in a line: Stability of the DIMEB complex from Example 3 a) 1 and the non-complexed active ingredient. It is filed as physicochemical. An excerpt: In Table 4 below, the stabilities of the DIMEB complex from Example 3 a) 1. and the non-complexed active ingredient are compiled: […]
Series [6] can be described thus: Storage of compound 1 at room temperature. As to conditions: after four months at room temperature. It is filed as physicochemical.
Where [7] appears, read: Exp. 10: 15 d/40° C. aqueous, 80 μg of DIMEB complex per ml, compound 1 20 μg per ml.
[8] abbreviates: Exp. 11: 15 d/60° C. aqueous, 80 μg of DIMEB complex per ml, compound 1 20 μg per ml.
[9] abbreviates: Exp. 12: 15 d/80° C. aqueous, 80 μg of DIMEB complex per ml, compound 1 20 μg per ml.
The mark [10] stands for this setting: Exp. 13: 30 d/40° C. aqueous, 80 μg of DIMEB complex per ml, compound 1 20 μg per ml.
Setting [11] is: Exp. 14: 30 d/60° C. aqueous, 80 μg of DIMEB complex per ml, compound 1 20 μg per ml.

For the molecule `COC[C@H]1O[C@@H]2O[C@H]3[C@H](O)[C@@H](OC)[C@@H](O[C@H]4[C@H](O)[C@@H](OC)[C@@H](O[C@H]5[C@H](O)[C@@H](OC)[C@@H](O[C@H]6[C@H](O)[C@@H](OC)[C@@H](O[C@H]7[C@H](O)[C@@H](OC)[C@@H](O[C@H]8[C@H](O)[C@@H](OC)[C@@H](O[C@H]1[C@H](O)[C@H]2OC)O[C@@H]8COC)O[C@@H]7COC)O[C@@H]6COC)O[C@@H]5COC)O[C@@H]4COC)O[C@@H]3COC` [DIMEB, Heptakis-(2,6-di-O-methyl)-β-cyclodextrin], in series [1], the “CD-Water Solubility (g/100 ml), (25° C.)” value came to 25 g/100 ml. Moreover, in series [2] (Saenger et al. 2002, Uekama, Irie 1987), the “solubility of the DIMEB” value is on record as 60 g/100 ml of water. Also, the solubility in water in series [2] (at 20° C., Saenger et al. 2002) is reported as > 50 g/100 ml of water. Further, the “solubility in water while being heated” value in series [2] (while being heated, Saenger et al. 2002) is given as < 1 g/100 ml. Moreover, the “effects in intravenous administration” value in series [3] is recorded as “hemolytic effects”.

Consider `OC[C@H]1O[C@@H]2O[C@H]3[C@H](O)[C@@H](O)[C@@H](O[C@H]4[C@H](O)[C@@H](O)[C@@H](O[C@H]5[C@H](O)[C@@H](O)[C@@H](O[C@H]6[C@H](O)[C@@H](O)[C@@H](O[C@H]7[C@H](O)[C@@H](O)[C@@H](O[C@H]8[C@H](O)[C@@H](O)[C@@H](O[C@H]9[C@H](O)[C@@H](O)[C@@H](O[C@H]1[C@H](O)[C@H]2O)O[C@@H]9CO)O[C@@H]8CO)O[C@@H]7CO)O[C@@H]6CO)O[C@@H]5CO)O[C@@H]4CO)O[C@@H]3CO` [γ-Cyclodextrin, γ-cyclodextrin], for which the “Cyclodextrin Solubility in Water (20° C.)” value in series [2] (20° C., source Szejtly 1988) is given as 23.3 g/100 ml.

Turning to `COC[C@H]1O[C@@H]2O[C@H]3[C@H](OC)[C@@H](OC)[C@@H](O[C@H]4[C@H](OC)[C@@H](OC)[C@@H](O[C@H]5[C@H](OC)[C@@H](OC)[C@@H](O[C@H]6[C@H](OC)[C@@H](OC)[C@@H](O[C@H]7[C@H](OC)[C@@H](OC)[C@@H](O[C@H]8[C@H](OC)[C@@H](OC)[C@@H](O[C@H]1[C@H](OC)[C@H]2OC)O[C@@H]8COC)O[C@@H]7COC)O[C@@H]6COC)O[C@@H]5COC)O[C@@H]4COC)O[C@@H]3COC` [TRIMEB], in series [1], the “CD-Water Solubility (g/100 ml), (25° C.)” value was 200 g/100 ml.

In the case of `C=C1/C(=C\C=C2/CCC[C@]3(C)[C@@H]([C@H](C)CCCC(C)(C)O)CC[C@@H]23)C[C@@H](O)C[C@@H]1O` [Calcitriol, (5Z,7E)-(1S,3R)-9,10-secocholesta-5,7,10(19)-triene-1,3,25-triol], the “previtamin formation / isomerization (in words)” value in series [4] was “do not show any significant previtamin formation”. Besides, the “% Previtamin (in Solution)” value in series [4] (Table 1, without cyclodextrin) is 0.3%.

On to `C=C1CC[C@H](O)C/C1=C/C=C1\CCC[C@]2(C)[C@@H]([C@H](C)/C=C/[C@H](C)C(C)C)CC[C@@H]12` [Ergocalciferol, (5Z,7E,22E)-(3S)-9,10-secoergosta-5,7,10(19),22-tetraen-3-ol], for which the “previtamin formation / isomerization (in words)” value in series [4] is given as “do not show any significant previtamin formation”. Further, the “% Previtamin (in Solution)” value in series [4] (Table 1, without cyclodextrin) is reported as 0.2%.

On to `C=C1/C(=C\C=C2/CCC[C@]3(C)[C@@H]([C@H](C)CCC[C@H](O)c4nccs4)CC[C@@H]23)C[C@@H](O)C[C@@H]1O` [Compound 1, (thiazol-2-yl)-26,27-dinor-9,10-secocholesta-5,7,10(19)-triene-1,3,25-triol], for which the “% Previtamin (in Solution)” value in series [4] (Table 2, compound 1 without CD) is recorded as 0.2 (in %. Further, in series [4] (Table 3, compound 1 without CD), the “% Previtamin” value is reported as 0.3%. Moreover, the By-Products in series [5] (Exp. 2: 30 d 40° C.) is 3.08%; in series [5] (Exp. 3: 3 d/80° C./75% rel F.), 77.45%; in series [5] (Exp. 4: 7 d/80° C./75% rel F.), 95.34%; in series [5] (Exp. 5: 15 d/40° C./75% rel F.) it was 2.9%; in series [5] (Exp. 6: 15 d/60° C./75% rel F.), 2.96%; in series [5] (Exp. 7: 15 d/80° C./75% rel F.) it was 100%. For the same molecule, the By-Products is given as 3.00% in series [5] (Exp. 8: 30 d/40° C./75% rel F.); 2.98% in series [5] (Exp. 9: 30 d/60° C./75% rel F.); 2.92** % in series [5] (setting [7]); 18.69** % in series [5] (setting [8]); 96.72** % in series [5] (setting [9]); 3.20** % in series [5] (setting [10]). The By-Products in series [5] (setting [11]) is given as 37.26** %; in series [5] (Start), 3%. Moreover, the Purity in series [5] (Exp. 2: 30 d 40° C.) worked out at 96.08%; in series [5] (Exp. 3: 3 d/80° C./75% rel F.), 22.55%; in series [5] (Exp. 4: 7 d/80° C./75% rel F.), 4.66%; in series [5] (Exp. 5: 15 d/40° C./75% rel F.) it was 96.61%; in series [5] (Exp. 6: 15 d/60° C./75% rel F.), 96.34%; in series [5] (Exp. 7: 15 d/80° C./75% rel F.) it was 0%. The Purity in series [5] (Exp. 8: 30 d/40° C./75% rel F.) is 96.7%; in series [5] (Exp. 9: 30 d/60° C./75% rel F.), 96.23%; in series [5] (setting [7]) it was 92.78%; in series [5] (setting [8]), 77.12%; in series [5] (setting [9]), 3.28%; in series [5] (setting [10]) it was 91.96%. Moreover, the values for the Purity in series [5] (setting [11]) and in series [5] (Start) were 59.76% and 96.12%, respectively. Moreover, the previtamin content entry in series [6] was “about 2%”. Moreover, the content in series [6] (in comparison to fresh samples or samples stored under inert conditions) came out at 60%.
